Data as given in patent publication US5145854A, “1-formyl-5,8,10-trideazafolates” (priority 1991, dated 1992).
Read-outs that look alike come from different tables or passages of the source.

What was measured:
[1] = molecular target: T1, hog liver glycinamide ribonucleotide formyltransferase (GARFTase) (Sus scrofa, UniProt A0A8W4FJW8); test: Inhibition of hog liver glycinamide ribonucleotide formyltransferase; format: biochemical; details: for IC50: hog liver enzyme, (R,S) diastereomer mixture where marked, read-out: I50 (μM) GARFTase
T1 construct: hog liver glycinamide ribonucleotide formyltransferase; from tissue; host or cells: hog liver
T1 sequence (A0A8W4FJW8 1-1009): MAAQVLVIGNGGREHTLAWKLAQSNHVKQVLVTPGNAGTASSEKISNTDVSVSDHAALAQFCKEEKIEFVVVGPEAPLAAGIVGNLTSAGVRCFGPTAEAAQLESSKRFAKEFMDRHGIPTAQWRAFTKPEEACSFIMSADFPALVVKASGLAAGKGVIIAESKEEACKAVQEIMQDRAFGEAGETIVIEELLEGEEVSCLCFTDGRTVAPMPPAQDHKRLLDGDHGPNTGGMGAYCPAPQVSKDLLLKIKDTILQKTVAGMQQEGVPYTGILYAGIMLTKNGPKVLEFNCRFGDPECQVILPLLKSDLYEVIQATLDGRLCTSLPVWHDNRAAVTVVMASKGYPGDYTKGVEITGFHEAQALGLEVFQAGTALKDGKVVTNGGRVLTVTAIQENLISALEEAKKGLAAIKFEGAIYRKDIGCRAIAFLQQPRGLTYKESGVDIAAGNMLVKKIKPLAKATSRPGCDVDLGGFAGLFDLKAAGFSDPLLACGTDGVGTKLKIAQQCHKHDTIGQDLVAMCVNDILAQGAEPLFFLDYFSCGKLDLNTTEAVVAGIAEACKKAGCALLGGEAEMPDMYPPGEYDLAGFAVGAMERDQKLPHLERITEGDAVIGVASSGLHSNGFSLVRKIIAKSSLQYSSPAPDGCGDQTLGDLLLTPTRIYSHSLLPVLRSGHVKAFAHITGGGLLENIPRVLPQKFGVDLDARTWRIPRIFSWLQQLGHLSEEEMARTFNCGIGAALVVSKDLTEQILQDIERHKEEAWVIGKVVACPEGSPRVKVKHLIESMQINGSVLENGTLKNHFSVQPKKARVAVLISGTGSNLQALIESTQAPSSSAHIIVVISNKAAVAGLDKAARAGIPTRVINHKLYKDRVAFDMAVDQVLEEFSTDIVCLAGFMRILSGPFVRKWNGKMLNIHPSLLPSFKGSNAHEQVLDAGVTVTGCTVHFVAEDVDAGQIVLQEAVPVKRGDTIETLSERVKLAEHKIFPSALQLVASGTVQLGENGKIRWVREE
Description: The representative compound of the present invention is 10-formyl-5,8,10-trideazatetrahydrofolic acid (FTDF) having the formula 1.

AICARFTase = AICARFTase (Homo sapiens, UniProt P31939); test: Inhibition of AICARFTase; format: biochemical
AICARFTase, sequence (P31939 whole entry): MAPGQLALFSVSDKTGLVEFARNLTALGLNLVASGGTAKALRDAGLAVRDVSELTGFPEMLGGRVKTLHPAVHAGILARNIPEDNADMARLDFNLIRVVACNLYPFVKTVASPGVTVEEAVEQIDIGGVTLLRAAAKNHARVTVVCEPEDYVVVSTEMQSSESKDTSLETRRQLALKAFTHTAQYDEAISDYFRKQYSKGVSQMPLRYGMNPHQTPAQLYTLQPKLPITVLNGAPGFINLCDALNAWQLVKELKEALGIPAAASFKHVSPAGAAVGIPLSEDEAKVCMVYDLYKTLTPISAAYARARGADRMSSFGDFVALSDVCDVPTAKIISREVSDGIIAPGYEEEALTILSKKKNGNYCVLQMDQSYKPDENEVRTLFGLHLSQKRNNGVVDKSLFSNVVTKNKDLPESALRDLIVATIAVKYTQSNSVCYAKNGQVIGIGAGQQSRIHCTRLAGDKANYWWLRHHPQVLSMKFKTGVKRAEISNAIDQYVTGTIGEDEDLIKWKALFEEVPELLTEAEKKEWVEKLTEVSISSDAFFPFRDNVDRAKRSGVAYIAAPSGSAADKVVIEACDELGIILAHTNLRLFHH

IC50 [1] | potency against GARFTase relative to DDATHF ([1]; hog liver GARFTase, identical experimental conditions) | IC50 (AICARFTase; read-out: I50 (μM) AICARFTase) | SMILES | IC50 (AICARFTase)
2.5 µM |  |  | Nc1nc(N)c(CCCNc2ccc(C(=O)N[C@@H](CCC(=O)O)C(=O)O)cc2)c(=O)[nH]1 [Compound 5-DACTHF, 5-deazaacyclotetrahydrofolic acid, reference compound] | 
 |  |  | Nc1nc2c(c(=O)[nH]1)CC(CCc1ccc(C(=O)N[C@@H](CCC(=O)O)C(=O)O)cc1)CN2 (some centres unmarked) [DDATHF, 5,10-dideazatetrahydrofolic acid, reference compound] | > 500 µM
0.15 µM | almost twice as potent | 18 µM | Nc1nc2ccc(CC(C=O)c3ccc(C(=O)N[C@@H](CCC(=O)O)C(=O)O)cc3)cc2c(=O)[nH]1 (some centres unmarked) [FTDF, 10-Formyl-5,8,10-trideazafolic Acid] | 
